Assay [1] deals with GST-tagged KRAS-G12V (2-169) (Homo sapiens, UniProt P01116, G12V). Nature of the assay: Nucleotide exchange assay (NEA), SOS-mediated, HTRF, KRAS G12V. In kind it is biochemical. Conditions: Table 4; IC50 extracted at 90 min; 80 nM SOS. The method in brief: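 GST-KRAS-G12V (2-169), 0.25 nM, pre-incubated 1 h at RT with compound, then SOS1cat (564-1049) 80 nM and GTP-DY-647P1 150 nM added in HEPES pH 7.3 buffer with MgCl2 and DTT. HTRF via anti-GST Tb cryptate read over 90 min; IC50 from 4-parameter fit at 90 min, blanked to no-SOS reactions.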
Sequence of GST-tagged KRAS-G12V (2-169) (P01116 2-169 isoform P01116-2 G12V): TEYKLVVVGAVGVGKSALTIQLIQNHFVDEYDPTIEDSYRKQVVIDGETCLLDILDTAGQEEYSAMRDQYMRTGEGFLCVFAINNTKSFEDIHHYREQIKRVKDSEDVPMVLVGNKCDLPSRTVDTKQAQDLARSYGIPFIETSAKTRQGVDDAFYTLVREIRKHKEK
(In TR-FRET formats the signal depends on donor and acceptor labels being close together.)

The target of assay [2] is GST-tagged KRAS-G12D (2-169) (Homo sapiens, UniProt P01116, G12D). Nature of the assay: Nucleotide exchange assay (NEA), SOS-mediated, HTRF, KRAS G12D. Format: biochemical. Conditions: Table 4; IC50 extracted at 30 min; 20 nM SOScat; read-out: NEA G12D IC50. The method in brief:
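Compound preincubated 1 h at RT with 0.25 nM GST-KRAS-G12D (2-169) and anti-GST Tb donor, then 20 nM SOS1cat (564-1049) and 150 nM GTP-DY-647P1 added; pH 7.3 HEPES buffer with MgCl2 and DTT. HTRF monitored at RT; % inhibition versus DMSO and no-SOS blank, 4-parameter IC50 taken at 30 min.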

Assay [3] has as its system phospho-ERK in SW620 (KRAS-G12V) cells. Put plainly: pERK In Cell Western (ICW) assay (Method B), SW620. Conditions: Homo sapiens, SW-620, 3 h, Table 4. Format: cell-based. As for the experimental part:
(§1) pERK ICW is a high throughput screening assay to evaluate the cellular potency of mutant KRAS small molecule inhibitors. KRAS mutant cell lines AGS, GP2D (KRAS-G12D) as well as SW620 (KRAS-G12V) were purchased from ATCC and maintained respectively in RPMI/DMEM/RPMI medium supplemented with 10% fetal bovine serum.
(§2) Cells grown in exponential phase were trypsinized, resuspended in fresh media, and viable cells were counted using a cell counter with Trypan Blue (BioRad TC20). Cells were seeded into 384-well plate (Greiner 781091) at density of 5,000 cells/well for AGS and 10,000 cells/well for GP2D/SW620 and allowed to grow overnight in a 37° C. CO2 incubator. The next day, compounds were dispensed into wells with a ½ log, 9-point serial dilution using a Tecan D300e dispenser and incubated for 3 hours in a 37° C. CO2 incubator. Cells were then fixed with paraformaldehyde (Electron Microscopy Sciences, 15710, 4% final concentration) for 30 min, permeabilized with wash buffer (1×PBS+0.1% Triton X-100) for 30 min and blocked with Odyssey blocking buffer (Li—COR 927-70001) for 1 hour, all at room temperature (RT). Phospho-ERK antibody (CST 4370L) was diluted 1:500 in Odyssey T20 (PBS) antibody diluent (Li—COR 927-75001) and incubated with cells overnight at 4° C. The next day, plates were washed 5× with wash buffer, incubated with IRDye 800 CW, Goat anti-Rabbit secondary antibody (Li—COR 926-32211, 1:800) and DRAQ5 (CST 4084L, 1:5,000) diluted in Odyssey T20 (PBS) antibody diluent for 1 hour, washed 5×, and imaged on an Odyssey CLx imaging system.
(§3) For data analysis, signal intensities from 800 (phosphor-ERK) and 700 (DRAQ5) channels were extracted, and phospho-ERK signals were normalized to DRAQ5 signals for each well and percent of blank control values were computed. Data were then imported into Graphpad Prism to compute half-maximal inhibitory concentrations (IC50) using a 4-parameter variable slope model. Z-factor for each plate was computed from signals derived from wells treated with either DMSO or 5 μM of control compound. AGS pERK ICW (Method B) IC50 (uM) values of selected compounds are depicted in Table 2 with compounds having a value ≥0.001 uM to 0.01 uM as ++++; ≥0.01 uM to 0.1 uM as +++; ≥0.1 uM to 1 uM as ++; ≥1 uM to 10 uM as + and ≥10 uM as NA.

The subject of assay [4] is phospho-ERK in GP2D (KRAS-G12D) cells. Put plainly: pERK In Cell Western (ICW) assay (Method B), GP2D. Format: cell-based. To be noted: GP2d, 3 h, Table 4. As for the experimental part:
as §1, §2, §3

Sequence of GST-tagged KRAS-G12D (2-169) (P01116 2-169 isoform P01116-2 G12D): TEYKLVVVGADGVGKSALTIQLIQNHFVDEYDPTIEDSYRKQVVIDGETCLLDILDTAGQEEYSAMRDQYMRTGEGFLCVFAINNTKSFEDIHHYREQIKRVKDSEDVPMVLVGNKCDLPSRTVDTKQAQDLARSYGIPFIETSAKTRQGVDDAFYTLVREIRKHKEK

One may read the IC50 as the midpoint of a concentration-inhibition curve. Regarding `CN(Cc1c(F)ccnc1N)c1nc(OC[C@@]23CCCN2C[C@H](F)C3)nc(N2CC3(C2)SCc2sc(N)c(C#N)c23)n1` [Compound 179, 2-amino-1′-[4-[(2-amino-4-fluoro-3-pyridyl)methyl-methyl-amino]-6-[[(2R,8S)-2-fluoro-1,2,3,5,6,7-hexahydropyrrolizin-8-yl]methoxy]-1,3,5-triazin-2-yl]spiro[6H-thieno[2,3-c]thiophene-4,3′-azetidine]-3-carbonitrile], the IC50 in assay [1] is below 10 nM; in assay [2], 10 to 100 nM; in assay [3], 10 to 100 nM; in assay [4] it was 100 to 1000 nM.

`C[C@@H]1[C@H](CO)CCCN1c1nc(OC[C@@]23CCCN2C[C@H](F)C3)nc(N2CC3(CCc4sc(N)c(C#N)c43)C2)n1` (racemic) [Compound 24, 2-amino-1′-[4-[[(2R,8S)-2-fluoro-1,2,3,5,6,7-hexahydropyrrolizin-8-yl]methoxy]-6-[rac-(2R,3R)-3-(hydroxymethyl)-2-methyl-1-piperidyl]-1,3,5-triazin-2-yl]spiro[5,6-dihydrocyclopenta[b]thiophene-4,3′-azetidine]-3-carbonitrile]: the IC50 was in the range of 100 to 1000 nM in assay [1], 100 to 1000 nM in assay [2] and 1000 to 20000 nM in assay [4].

With `N#Cc1c(N)sc2c1C1(CC2)CN(c2nc(OC[C@@]34CCCN3C[C@H](F)C4)nc(N3C[C@H](O)C[C@@H](O)C3)n2)C1` [Compound 26, 2-amino-1′-[4-[(3R,5R)-3,5-dihydroxy-1-piperidyl]-6-[[(2R,8S)-2-fluoro-1,2,3,5,6,7-hexahydropyrrolizin-8-yl]methoxy]-1,3,5-triazin-2-yl]spiro[5,6-dihydrocyclopenta[b]thiophene-4,3′-azetidine]-3-carbonitrile], the IC50 in assay [1] was 10 to 100 nM; in assay [2], 10 to 100 nM; in assay [4], at least 20000 nM.

`N#CNC1CCCN(c2nc(OC[C@@]34CCCN3C[C@H](F)C4)nc(N3CC4(CCc5sc(N)c(C#N)c54)C3)n2)C1` (stereo partly drawn) [Compound 33, [1-[4-(2-amino-3-cyano-spiro[5,6-dihydrocyclopenta[b]thiophene-4,3′-azetidine]-1′-yl)-6-[[(2R,8S)-2-fluoro-1,2,3,5,6,7-hexahydropyrrolizin-8-yl]methoxy]-1,3,5-triazin-2-yl]-3-piperidyl]cyanamide]: the figures for the IC50 in assay [1], in assay [2] and in assay [4] were below 10 nM, 10 to 100 nM and 100 to 1000 nM, respectively.

In the case of `N#Cc1c(N)sc2c1C1(CN(c3nc(OCC4(CN5CCOCC5)CC4)nc(N4C[C@@H]5CC[C@@H](N5)C4CO)n3)C1)SC2` (stereo partly drawn) [Compound 188, 2′-amino-1-(4-((1R,5S)-2-(hydroxymethyl)-3,8-diazabicyclo[3.2.1]octan-3-yl)-6-((1-(morpholinomethyl)cyclopropyl)methoxy)-1,3,5-triazin-2-yl)-6′H-spiro[azetidine-3,4′-thieno[3,4-b]thiophene]-3′-carbonitrile], the figures for the half-inhibitory concentration (IC50) in assay [1], in assay [2] and in assay [4] were 10 to 100 nM, below 10 nM and below 10 nM, respectively.

As for `N#CCC1C=C(F)CN(c2nc(OC[C@@]34CCCN3C[C@H](F)C4)nc(N3CC4(CCc5sc(N)c(C#N)c54)C3)n2)C1` (stereo partly drawn) [Compound 25, 2-amino-1′-[4-[3-(cyanomethyl)-5-fluoro-3,6-dihydro-2H-pyridin-1-yl]-6-[[(2R,8S)-2-fluoro-1,2,3,5,6,7-hexahydropyrrolizin-8-yl]methoxy]-1,3,5-triazin-2-yl]spiro[5,6-dihydrocyclopenta[b]thiophene-4,3′-azetidine]-3-carbonitrile], the IC50 was 10 to 100 nM in assay [1], 10 to 100 nM in assay [2] and 100 to 1000 nM in assay [4].

Turning to `C[C@@]1(O)CCCN(c2nc(OC[C@@]34CCCN3C[C@H](F)C4)nc(N3CC4(CCCc5sc(N)c(C#N)c54)C3)n2)C1` [Compound 30, 2-amino-1′-[4-[[(2R,8S)-2-fluoro-1,2,3,5,6,7-hexahydropyrrolizin-8-yl]methoxy]-6-[(3R)-3-hydroxy-3-methyl-1-piperidyl]-1,3,5-triazin-2-yl]spiro[6,7-dihydro-5H-benzothiophene-4,3′-azetidine]-3-carbonitrile], the IC50 in assay [1] fell in the range of 10 to 100 nM; in assay [2] it was 10 to 100 nM; in assay [4], 100 to 1000 nM.

Turning to `CN(C)CC1(COc2nc(N3CC4(CCc5sc(N)c(C#N)c54)C3)nc(N3CCC[C@@](C)(O)C3)n2)CC1(F)F` (stereo partly drawn) [Compound 34, 2-amino-1′-[4-[[1-[(dimethylamino)methyl]-2,2-difluoro-cyclopropyl]methoxy]-6-[(3R)-3-hydroxy-3-methyl-1-piperidyl]-1,3,5-triazin-2-yl]spiro[5,6-dihydrocyclopenta[b]thiophene-4,3′-azetidine]-3-carbonitrile], the IC50 is below 10 nM in assay [1], below 10 nM in assay [2] and 10 to 100 nM in assay [4].

On to `CC(CC#N)N(C)c1nc(OC[C@@]23CCCN2C[C@H](F)C3)nc(N2CC3(C2)SCc2sc(N)c(C#N)c23)n1` (stereo partly drawn) [Compound 249, 2-amino-1′-[4-[(2-cyano-1-methyl-ethyl)-methyl-amino]-6-[[(2R,8S)-2-fluoro-1,2,3,5,6,7-hexahydropyrrolizin-8-yl]methoxy]-1,3,5-triazin-2-yl]spiro[6H-thieno[2,3-c]thiophene-4,3′-azetidine]-3-carbonitrile], for which the IC50 is below 10 nM in assay [1], below 10 nM in assay [2] and 1000 to 20000 nM in assay [3].

On to `C#CCN(CC#N)c1nc(OC[C@@]23CCCN2C[C@H](F)C3)nc(N2CC3(C2)SCc2sc(N)c(C#N)c23)n1` [Compound 243, 2-amino-1′-[4-[cyanomethyl(prop-2-ynyl)amino]-6-[[(2R,8S)-2-fluoro-1,2,3,5,6,7-hexahydropyrrolizin-8-yl]methoxy]-1,3,5-triazin-2-yl]spiro[6H-thieno[3,4-b]thiophene-4,3′-azetidine]-3-carbonitrile], for which the IC50 in assay [1] is below 10 nM; in assay [2], below 10 nM; in assay [3], 100 to 1000 nM.

Take `N#Cc1c(N)sc2c1C1(CN(c3nc(OC[C@@]45CCCN4C[C@H](F)C5)nc(N(CCO)CC4(C#N)CC4)n3)C1)SC2` [Compound 239, 2-amino-1′-[4-[(1-cyanocyclopropyl)methyl-(2-hydroxyethyl)amino]-6-[[(2R,8S)-2-fluoro-1,2,3,5,6,7-hexahydropyrrolizin-8-yl]methoxy]-1,3,5-triazin-2-yl]spiro[6H-thieno[2,3-c]thiophene-4,3′-azetidine]-3-carbonitrile]: the IC50 was below 10 nM in assay [1], below 10 nM in assay [2] and 100 to 1000 nM in assay [3].

For the compound `N#Cc1c(N)sc2c1C1(CC2)CN(c2nc(OC[C@@]34CCCN3C[C@H](F)C4)nc(N3CCc4noc(N)c4C3)n2)C1` [Compound 31, 2-amino-1′-[4-(3-amino-6,7-dihydro-4H-isoxazolo[4,3-c]pyridin-5-yl)-6-[[(2R,8S)-2-fluoro-1,2,3,5,6,7-hexahydropyrrolizin-8-yl]methoxy]-1,3,5-triazin-2-yl]spiro[5,6-dihydrocyclopenta[b]thiophene-4,3′-azetidine]-3-carbonitrile], the IC50 fell in the range of 100 to 1000 nM in assay [1], 10 to 100 nM in assay [2] and 100 to 1000 nM in assay [4].

The record behind these values is patent US12421254B2, “KRAS modulators and uses thereof” (Quanta Therapeutics, Inc., priority 2023, dated 2025).
